# According to the supplement of paper PMC10307832:
# Columns and labels:
# Test in all cases: relative viability (nuclei count vs DMSO), 5 days (fraction); higher = more cells survive
# AT9283 + Pictilisib = compound: O=C(Nc1c[nH]nc1-c1nc2ccc(CN3CCOCC3)cc2[nH]1)NC1CC1 [AT9283] + CS(=O)(=O)N1CCN(Cc2cc3nc(-c4cccc5[nH]ncc45)nc(N4CCOCC4)c3s2)CC1 [Pictilisib] (partner 1 µM)
# In short: (§1)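 Lung cancer cell lines were seeded in 1536-well plates and dosed by pin tool the next day, with either a single drug or a fixed anchor-drug dose combined with five library-drug doses (not always all listed) spaced in √10 steps. Five days later, one step fixed the cells and stained their nuclei (final 0.05% Triton X-100, 1% formaldehyde, 1 ug/ml Hoechst), and nuclei were counted on 4× images. Relative viability is the nuclei count in treated wells divided by the count in vehicle wells, and each value is the median of duplicate plates.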
# Erlotinib + Linsitinib = compound: C#Cc1cccc(Nc2ncnc3cc(OCCOC)c(OCCOC)cc23)c1 [Erlotinib] + C[C@]1(O)C[C@@H](c2nc(-c3ccc4ccc(-c5ccccc5)nc4c3)c3c(N)nccn32)C1 [Linsitinib] (partner 1 µM)
# In short: as §1
# Erlotinib + Foretinib = compound: C#Cc1cccc(Nc2ncnc3cc(OCCOC)c(OCCOC)cc23)c1 [Erlotinib] + COc1cc2c(Oc3ccc(NC(=O)C4(C(=O)Nc5ccc(F)cc5)CC4)cc3F)ccnc2cc1OCCCN1CCOCC1 [Foretinib] (partner 0.25 µM)
# In short: as §1
# Phenformin = compound: N=C(N)NC(=N)NCCc1ccccc1 [Phenformin] (anchor plate); details: 250 µM
# In short: (§2)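 Lung cancer cell lines received five library-drug doses (not always all listed) spaced by √10, pinned on vehicle-anchored 1536-well plates after an overnight stay at 37 °C. Five days later, with no medium change, nuclei were Hoechst-stained, imaged at 4× and counted with MetaXpress. Viability is treated-well nuclei relative to vehicle-well nuclei, as a median across plates. Passing plates had control CV below 25% and at least one doubling.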
# AT9283 = compound: O=C(Nc1c[nH]nc1-c1nc2ccc(CN3CCOCC3)cc2[nH]1)NC1CC1 [AT9283]
# In short: as §2
# Erlotinib = compound: C#Cc1cccc(Nc2ncnc3cc(OCCOC)c(OCCOC)cc23)c1 [Erlotinib]
# In short: as §2
cell line,measurement,setting,value
NCI-H441,relative viability,AT9283 + Pictilisib; first compound 0.003 µM,0.359
same,relative viability,AT9283 + Pictilisib; first compound 0.03 µM,0.469
same,relative viability,AT9283 + Pictilisib; first compound 0.09487 µM,0.138
same,relative viability,AT9283 + Pictilisib; first compound 0.3 µM,0.186
same,relative viability,Erlotinib + Linsitinib; first compound 0.02 µM,0.686
same,relative viability,Erlotinib + Linsitinib; first compound 0.2 µM,0.746
same,relative viability,Erlotinib + Linsitinib; first compound 0.6325 µM,0.569
same,relative viability,Erlotinib + Linsitinib; first compound 2 µM,0.326
same,relative viability,Erlotinib + Foretinib; first compound 0.02 µM,1.01
same,relative viability,Erlotinib + Foretinib; first compound 0.2 µM,1.02
same,relative viability,Erlotinib + Foretinib; first compound 0.6325 µM,0.933
same,relative viability,Erlotinib + Foretinib; first compound 2 µM,0.883
same,relative viability,Phenformin,0.87
same,relative viability,AT9283; 0.003 µM,1.09
same,relative viability,AT9283; 0.03 µM,0.856
same,relative viability,AT9283; 0.09487 µM,0.37
same,relative viability,AT9283; 0.3 µM,0.337
same,relative viability,Erlotinib; 0.2 µM,1.1
same,relative viability,Erlotinib; 0.6325 µM,1.05
same,relative viability,Erlotinib; 2 µM,0.848
